US7772197B2, “1,3,5-triazines for treatment of viral diseases” (1,3,5-Triazines for Treatment of Viral Diseases, priority 2002, dated 2010)
Like-named read-outs stand apart in the source and are kept apart here.

Tests used:
HIV-1 LAI = experiment: Treatment of HIV-1-infected MT-2 cells with nucleoside analogues, p24 ELISA; type: cell-based
Protocol: The strains of HIV-1 used for primary drug screening are HIV-1 LAI or the appropriate strain of NRTI resistant HIV for studies of cross-resistance. Virus was propagated on MT-2 cells at an multiplicity of infection (MOI) of 0.01 to generate virus stocks. Briefly, the MT-2 cells were suspended in RPMI 1640 media supplemented with 10% fetal bovine serum, streptomycin and penicillin (cRPMI) and grown in a 37° C. incubator containing 5% CO2. Serial dilution of the virus and infection of MT-2 cells were followed by an ELISA detecting the capsid protein of HIV-1 (p24) and used to determine the titer of the virus stocks (50% tissue culture infectious dose (TCID50)). The ELISA was performed according to the manufacturer's instructions. The MT-2 cells are also used for visualizing the cytopathic effects of HIV-1 growth (e.g. syncytia formation).
0.1 ml of a 3×10^5 cells/ml MT-2 cell suspension were seeded in 96-well plates at 3×10^4 cells/well. The compounds to be assayed were diluted in a separate 96-well at ten times (10×) the concentration needed for the screen. 22 μl of the 10× compounds was then added to the wells in triplicate except for six control wells, containing uninfected MT-2 cells alone (3 wells) and untreated HIV-infected MT-2 cells (3 wells). This was followed by the addition of HIV-1 at an MOI of 0.01, except for the three wells serving as the uninfected control. 0.1 ml of cRPMI was added to the uninfected well instead of virus. After the addition of virus, the 96-well plate was centrifuged at 1,200×g for two hours to enhance the adsorption of the virus by the MT-2 cells (see, e.g., O'Doherty, J. Virol. 74:10074-10080 (2000)). After the centrifugation step, the 96-well plate was then incubated in a 37° C. incubator containing 5% CO2 for three days. At the end of this time period the virus and cells were mixed by gentle pipetting followed by a 1 minute spin at 600×g to pellet the cells. The supernatant of each well was then serially diluted 1,000-fold into new 96-well plates to serve as inoculum for the next passage and assayed by ELISA for the amount of p24 produced. The next passage was performed as described above, except that the virus used to infect the cells was derived from the 1,000-fold dilution plate. To generate an EC50 value, half-log concentrations of mutagenic nucleoside or nucleotide analogue capable of eradicating virus in a single passage are tested as above to generate a dose-response curve.

[1] = Toxicology in SCID-Hu Thy/Liv mice; type: in vivo; details: up to 100 mg/kg/day subcutaneously, 21 days
Protocol: (§1) After completion of this toxicology experiment, SN1212 was tested in HIV infected SCID-Hu mice. […] The discordance between viral infectivity and conventional surrogate markers of viral load, such as p24 or HIV RNA, is not surprising, as it has also been observed in vitro, and reflects the increased proportion of non-infectious viral particles in the presence of SN1212. It is also interesting to note that, of the treated groups, the immunologic profile of the SN1212 groups most closely resemble that of the uninfected group. This is compatible with the finding that infection with less “fit” viruses provides a relative clinical benefit by preserving cellular immunity.

polymerase-α = target: T1, polymerase-α (Homo sapiens, UniProt P09884); experiment: Substrate for cellular polymerase; type: biochemical; details: data not shown
T1 sequence (P09884 1-1462): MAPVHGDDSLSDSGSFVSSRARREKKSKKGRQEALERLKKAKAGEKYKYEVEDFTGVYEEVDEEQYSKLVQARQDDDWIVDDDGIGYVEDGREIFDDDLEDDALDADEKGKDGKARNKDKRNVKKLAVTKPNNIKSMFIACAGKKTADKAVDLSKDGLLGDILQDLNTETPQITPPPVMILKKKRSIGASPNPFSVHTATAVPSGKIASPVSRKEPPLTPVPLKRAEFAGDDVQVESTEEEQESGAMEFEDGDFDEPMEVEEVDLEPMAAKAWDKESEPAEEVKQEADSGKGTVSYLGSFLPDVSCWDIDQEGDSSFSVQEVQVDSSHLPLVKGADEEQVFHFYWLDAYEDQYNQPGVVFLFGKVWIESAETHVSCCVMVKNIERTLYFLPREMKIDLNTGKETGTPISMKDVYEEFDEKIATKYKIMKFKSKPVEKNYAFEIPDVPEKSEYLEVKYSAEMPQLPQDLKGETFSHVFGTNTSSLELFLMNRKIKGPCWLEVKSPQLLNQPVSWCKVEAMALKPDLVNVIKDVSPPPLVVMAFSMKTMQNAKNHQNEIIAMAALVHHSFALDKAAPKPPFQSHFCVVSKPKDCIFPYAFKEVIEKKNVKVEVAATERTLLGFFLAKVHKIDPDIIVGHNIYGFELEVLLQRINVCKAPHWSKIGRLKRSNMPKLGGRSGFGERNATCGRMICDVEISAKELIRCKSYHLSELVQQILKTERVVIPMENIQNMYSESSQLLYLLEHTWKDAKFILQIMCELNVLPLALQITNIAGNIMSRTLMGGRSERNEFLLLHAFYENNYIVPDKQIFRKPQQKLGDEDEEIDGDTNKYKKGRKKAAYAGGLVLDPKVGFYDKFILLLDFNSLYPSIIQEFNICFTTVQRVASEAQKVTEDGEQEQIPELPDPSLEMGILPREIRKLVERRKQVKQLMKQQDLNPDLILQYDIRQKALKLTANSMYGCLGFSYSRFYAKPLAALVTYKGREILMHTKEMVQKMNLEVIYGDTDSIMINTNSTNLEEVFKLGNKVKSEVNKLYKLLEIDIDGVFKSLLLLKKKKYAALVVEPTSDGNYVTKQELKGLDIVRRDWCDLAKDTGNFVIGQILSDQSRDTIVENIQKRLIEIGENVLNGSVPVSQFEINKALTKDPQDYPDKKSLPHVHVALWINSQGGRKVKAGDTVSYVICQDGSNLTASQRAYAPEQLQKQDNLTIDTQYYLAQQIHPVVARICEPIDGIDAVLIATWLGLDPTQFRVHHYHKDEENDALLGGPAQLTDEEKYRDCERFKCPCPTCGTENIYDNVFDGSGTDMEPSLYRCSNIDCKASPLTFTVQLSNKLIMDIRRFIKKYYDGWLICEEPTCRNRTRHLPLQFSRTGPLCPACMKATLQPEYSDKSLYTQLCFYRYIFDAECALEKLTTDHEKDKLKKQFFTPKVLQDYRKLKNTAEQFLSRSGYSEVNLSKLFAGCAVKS

HIV = HIV infected SCID-Hu mice; type: in vivo
Protocol: as §1

In the case of `NC1=NC(=O)N([C@H]2C[C@H](O)[C@@H](CO)O2)CN1` [DHAdC, 1-(2-Deoxy-β-D-ribofuranosyl)-4-amino-1,2,5,6-tetrahydro-1,3,5-triazin-2-one], the EC50 (HIV-1 LAI; Human immunodeficiency virus 1, MT2, read-out: EC50 against HIV, against HIV, strain not stated, 'in the range of') is reported as roughly 10 nM, the EC50 (HIV-1 LAI; Human immunodeficiency virus 1, MT2, wild-type HIV strain LAI, MT-2 cells) is reported as 3000 nM and the toxicity [1] is reported as “without any significant toxicity”. The “substrate for polymerase-α” value (polymerase-α) was “poor substrate”, the “CD4+” value (HIV; 10 mg/kg/day) was 13% and the “CD4+ CD8+” value (HIV; 10 mg/kg/day) was 70%. The “CD8+” value (HIV; 10 mg/kg/day) was 9.5%, the “HIV-1 RNA” value (HIV; 10 mg/kg/day) was 5.3 log copies/10^6 cells and the p24 (HIV; 10 mg/kg/day) was 510 pg/10^6 cells. The Viral liter (HIV; 10 mg/kg/day, ** p < 0.05) was 15.2** viruses/10^6 cells, the “CD4+” value (HIV; 100 mg/kg/day) was 10% and the “CD4+ CD8+” value (HIV; 100 mg/kg/day) was 63%. For the same compound, the “CD8+” value (HIV; 100 mg/kg/day) was 11%, the “HIV-1 RNA” value (HIV; 100 mg/kg/day) was 5.1 log copies/10^6 cells and the Viral liter (HIV; 100 mg/kg/day) was 24.9 viruses/10^6 cells. The p24 (HIV; 100 mg/kg/day) was 570 pg/10^6 cells.
